Test results taken from US20210283099A1, “CDC7 KINASE INHIBITORS AND USES THEREOF” (SLOAN-KETTERING INSTITUTE FOR CANCER RESEARCH, priority 2010, published 2021).
Where two headings read alike, the source gives them in different places.

Key:
Format in all cases: cell-based
H11-18 = test: Cytotoxicity assay (Alamar blue); conditions: Human lung adenocarcinoma, L858R EGFR mutation
Protocol: (§1) FIGS. 16A-16B. Granaticin A and Granaticin B inhibit multiple tumor types: The indicated cell lines and primary patient samples were tested against the compounds listed in standard cytotoxicity assays (12 point dose response using Alamar blue reduction as an indicator of cell viability). Assays were done in triplicate and IC50 determinations were run in 12-point serial dilutions from […] to 5 nM. […] These include ras and EGFR gatekeeper mutation containing cell lines in addition to p53 mutant cell lines and other known chemotherapy resistant cell lines. Specifically, this included multi-drug resistance phenotype (MDR-overexpressing) cell lines from multiple hematologic and solid tumor cell lines. Table 1 highlights a series of primary patient leukemia samples-both acute and chronic and treatment naïve and refractory tested against granaticins A and B and Derivatives 1 and 2 (see Examples).

ALL3 = test: Cytotoxicity assay (Alamar blue); conditions: Human Acute Lymphoblastic leukemia, Philadelphia chromosome positive
Protocol: as §1

SOPA = test: Cytotoxicity assay (Alamar blue); conditions: Homo sapiens, Patient sample of secondary AML with chromsome 11q23 abnormality
Protocol: as §1

MDA-MB -231 = test: Cytotoxicity assay (Alamar blue); conditions: human metastatic breast adenocarcinoma, estrogen, progesterone, and HER2/NEU receptor negative
Protocol: as §1

HL60 = test: Cytotoxicity assay (Alamar blue); conditions: HL-60, Human Acute Promyelocytic leukemia
Protocol: as §1

RADO = test: Cytotoxicity assay (Alamar blue); conditions: Homo sapiens, Patient sample of primary refractory AML with multiple chromosomal abnormalities (−5, −7)
Protocol: as §1

MIHA = test: Cytotoxicity assay (Alamar blue); conditions: Homo sapiens, Patient sample of relapsed/refractory acute biphenotypic leukemia (refractory to allogeneic bone marrow transplant)
Protocol: as §1

H3255 = test: Cytotoxicity assay (Alamar blue); conditions: NCI-H3255, Human lung adenocarcinoma, L858R EGFR mutation, wild-type KRAS, wild-type P53
Protocol: as §1

NCEB1 = test: Cytotoxicity assay (Alamar blue); conditions: Human Mantle Cell Lymphoma
Protocol: as §1

JAMC = test: Cytotoxicity assay (Alamar blue); conditions: Homo sapiens, Patient sample of AML with inversion of chromosome 16
Protocol: as §1

SKMEL28 = test: Cytotoxicity assay (Alamar blue); conditions: SK-MEL-28, Human melanoma
Protocol: as §1

PC9 = test: Cytotoxicity assay (Alamar blue); conditions: PC-9, Human lung adenocarcinoma, DelE746-A750 EGFR mutation
Protocol: as §1

JNDSRCT1 = test: Cytotoxicity assay (Alamar blue); conditions: Human desmoplastic small round cell tumor cell line
Protocol: as §1

MAWI = test: Cytotoxicity assay (Alamar blue); conditions: Homo sapiens, Patient sample of relpased/refractory AML with normal cytogenetics
Protocol: as §1

TC71 = test: Cytotoxicity assay (Alamar blue); conditions: TC-71, Human Ewing's sarcoma
Protocol: as §1

MEG01 = test: Cytotoxicity assay (Alamar blue); conditions: MEG-01, Human CML transformed to acute Megakaryoblastic leukemia
Protocol: as §1

DOGO = test: Cytotoxicity assay (Alamar blue); conditions: Homo sapiens, Patient sample of CLL with trisomy of chromosome 12 and unmutated Ig heavy chain locus
Protocol: as §1

MOLT3 = test: Cytotoxicity assay (Alamar blue); conditions: MOLT-3, Human Acute Lympholastic T-cell Leukemia
Protocol: as §1

BE(2)C = test: Cytotoxicity assay (Alamar blue); conditions: human neuroblastoma, p53 mutant
Protocol: as §1

ALBU = test: Cytotoxicity assay (Alamar blue); conditions: Homo sapiens, Patient sample of essential thrombocythemia transformed to refractory acute myelogenous leukemia
Protocol: as §1

SW1736 = test: Cytotoxicity assay (Alamar blue); conditions: SW-1736, Human anaplastic thyroid carcinoma with BRAF V600E mutation
Protocol: as §1

H460 = test: Cytotoxicity assay (Alamar blue); conditions: NCI-H460, human large cell lung carcinoma, Q61H KRAS mutation
Protocol: as §1

132 = test: Cytotoxicity assay (Alamar blue); conditions: Homo sapiens, Patient sample of Chronic Lymphocytic Leukemia
Protocol: as §1

GLHU = test: Cytotoxicity assay (Alamar blue); conditions: Homo sapiens, Patient sample of Chronic Myelogenous leukemia
Protocol: as §1

A2780 = test: Cytotoxicity assay (Alamar blue); conditions: Human ovarian carcinoma
Protocol: as §1

JUCO = test: Cytotoxicity assay (Alamar blue); conditions: Homo sapiens, Patient sample of pre-B cell ALL with t(4;11) involving the MLL gene
Protocol: as §1

JOQU = test: Cytotoxicity assay (Alamar blue); conditions: Homo sapiens, Patient sample of relapsed/refractory AML with trisomy of chromosome #8 and Flt-3 ITD
Protocol: as §1

JABR = test: Cytotoxicity assay (Alamar blue); conditions: Homo sapiens, Patient sample of relpased/refractory AML with normal cytogenetics and Flt-3 ITD
Protocol: as §1

RH30 = test: Cytotoxicity assay (Alamar blue); conditions: Human rhabdomyosarcoma, P53 mutation
Protocol: as §1

K562 = test: Cytotoxicity assay (Alamar blue); conditions: Human Chronic Myelogenous leukemia transformed to acute erythroleukemia
Protocol: as §1

[1] = tested on: RPE (retinal pigment epithelial cells); test: FACS and caspase-3 assay in normal diploid cells
Protocol: FIGS. 23A-23C. Granaticin A and B are not cytotoxic to normal diploid cells: FIGS. 23A-23B: Granaticin B exposure is not cytotoxic to normal diploid cells. Either HeLa or RPE (retinal pigment epithelial cells, a normal human diploid cell line) cells were incubated in carrier control (DMSO) or granaticin B (1 microM) for 24 hours and samples were subjected to standard FACS analysis with the x-axis indicating DNA content (FIG. 23A). […] FIG. 23C: Granaticin A exposure is not cytotoxic to normal diploid cells. Either HeLa or RPE (retinal pigment epithelial cells, a normal diploid cell line) cells were incubated in carrier control (DMSO) or granaticin A for 24 hours and samples were subjected to standard FACS analysis with FL2 indicating DNA content.

CC1OC2CC(O)C1(O)c1c(O)c3c(c(O)c12)C(=O)C1=C(C3=O)[C@H](C)O[C@H]2CC(=O)O[C@@H]12 (stereo partly drawn) [Granaticin A, granaticin A]
IC50 (H11-18): 420 nM | IC50 (ALL3): 140 nM | IC50 (SOPA): 100 nM | IC50 (MDA-MB -231): 470 nM | IC50 (HL60): 140 nM | IC50 (RADO): 60 nM | IC50 (MIHA): 300 nM | IC50 (H3255): 210 nM | IC50 (NCEB1): 330 nM | IC50 (JAMC): 60 nM | IC50 (SKMEL28): 540 nM | IC50 (PC9): 300 nM | IC50 (JNDSRCT1): 70 nM | IC50 (MAWI): 720 nM | IC50 (TC71): 150 nM | IC50 (MEG01): 170 nM | IC50 (DOGO): 150 nM | IC50 (MOLT3): 30 nM | IC50 (BE(2)C): 70 nM | IC50 (ALBU): 430 nM | IC50 (SW1736): 160 nM | IC50 (H460): 390 nM | IC50 132: 130 nM | IC50 (GLHU): 260 nM | IC50 (A2780): 120 nM | IC50 (JUCO): 80 nM | IC50 (JOQU): 770 nM | IC50 (JABR): 210 nM | IC50 (RH30): 130 nM | IC50 (K562): 120 nM | cell cycle profile [1]: unaffected

CC1OC2CC(O[C@H]3CC[C@H](O)[C@H](C)O3)C1(O)c1c(O)c3c(c(O)c12)C(=O)C1=C(C3=O)[C@H](C)O[C@H]2CC(=O)O[C@@H]12 (stereo partly drawn) [Granaticin B, granaticin B]
IC50 (H11-18): 60 nM | IC50 (ALL3): 30 nM | IC50 (SOPA): 90 nM | IC50 (MDA-MB -231): 290 nM | IC50 (HL60): 90 nM | IC50 (RADO): 30 nM | IC50 (MIHA): 40 nM | IC50 (H3255): 70 nM | IC50 (NCEB1): 260 nM | IC50 (JAMC): 40 nM | IC50 (SKMEL28): 340 nM | IC50 (PC9): 70 nM | IC50 (JNDSRCT1): 50 nM | IC50 (MAWI): 180 nM | IC50 (TC71): 90 nM | IC50 (MEG01): 80 nM | IC50 (DOGO): 70 nM | IC50 (MOLT3): 10 nM | IC50 (BE(2)C): 40 nM | IC50 (ALBU): 30 nM | IC50 (SW1736): 20 nM | IC50 (H460): 80 nM | IC50 132: 10 nM | IC50 (GLHU): 80 nM | IC50 (A2780): 20 nM | IC50 (JUCO): 10 nM | IC50 (JOQU): 140 nM | IC50 (JABR): 50 nM | IC50 (RH30): 80 nM | IC50 (K562): 80 nM | caspase-3 activation ([1]; RPE cells, 1 microM): does not result in caspase-3 activation | cell cycle profile ([1]; RPE cells, 24 hours (granaticin B 1 microM)): essentially unaffected
